Measurements as given in patent US20250270165A1, “COMPOSITIONS FOR AND METHODS OF MODULATING RNA STABILITY” (Duke University, priority 2022, published 2025).
Values joined by “and” are separate entries in the source; they are usually repeats but may differ in a detail not shown here. Equal entries are not always repeated. “Also recorded” adds a separate entry of the source. Where two headings read alike, the source gives them in different places.

Assays:
[1] = test system: MALAT1 triple helix; experiment: RiboGreen indicator displacement assay (IDA); type: binding, human
Protocol: Indicator Displacement Assay (DIA).
The protocol was adapted from a previously reported procedure. (Donlic A, et al. (2020) Nucleic Acids Res. 48(14):7653-7664). A serial dilution of the MALAT1 triple helix RNA was performed in HEPES buffer (20 mM HEPES-KOH, 52.6 mM KCl. 0.1 mM MgCl2, pH=7.4) in a 96 well plate in triplicate. […] of each dilution were transferred to a 384 well plate followed by […] of a 500 nM solution of RiboGreen dye in the same buffer (Invitrogen™). The plates were excited at 487 nm (8 nm slit) and emission was recorded at 530 nm (8 nm slit, focal height 11.3 mm) using a CLARIOstar plate reader (BMG labtech). The affinity of the dye for the RNA construct was determined by fitting the raw fluorescence in GraphPad Prism version 8.3.1 for Macintosh (GraphPad Software, La Jolla California USA, (www.graphpad.com)) by fitting to the Log[Agonist]vs. response-variable slope model that using Equation (1) below.
where Y is normalized % change in fluorescence intensity, X is RNA concentration, Bottom is lowest fluorescence % change and Top is highest fluorescence % change. Affinity of the dye for the RNA construct was used as the ideal RNA concentration (174 nM) for small molecule titrations.
A serial dilution of small molecule (0, 0.5 μM, […], 2.5 μM, […], 7.5 μM, 10.0 μM, 12.5 μM, 25 μM, 50 μM, 75 μM, 100 μM, 125 µM, 150 µM, 250 μM, 500 µM) was performed in HEPES buffer (20 mM HEPES-KOH, 52.6 mM KCl, 0.1 mM MgCl2, pH=7.4) in a 96 well plate in triplicate. Then, 8 μL of each dilution were transferred to a 384 well plate, followed by 8 μL of a 174 nM solution of MALAT1 RNA and 0.5 mM of RiboGreen™ (Invitrogen™). The RNA was previously annealed by heating to 95° C. for 5 minutes and cooling to 0° C. on ice for 30 minutes. The 384 well plates were shaken for 5 minutes, centrifuged at 4000 rpm for 1 minute, and incubated in the dark for 20 minutes. The plates were excited at 487 nm (8 nm slit) and emission was read at 525 nm (8 nm slit, focal height […]) using a CLARIOstar plate reader (BMG Labtech). Percent fluorescence indicator displacement (% FID) was calculated by subtracting and, subsequently, dividing by the blank wells with RNA-dye complex and no small molecule as shown in Equation (2).
Where F0 is the fluorescence of the blank well with RNA+dye and no small molecule and F is the fluorescence of the well with all three components (RNA+dye+small molecule).
Each technical triplicate was averaged, and the resulting FID values were averaged between three independent experiments. The binding curve and Log(CD50) value was obtained by using a non-linear fit curve (Log[Agonist]vs. response) with variable slope at four parameters (GraphPad Prism Software version for Macintosh 8.3.1, La Jolla, California, USA (www.graphpadprism.com)) as shown in Equation 1. Reported values are averages of three independent experiments standard deviation.

[2] = test system: MALAT1 triple helix; experiment: Differential scanning fluorimetry (DSF), triplex thermal stability; type: binding, human
Protocol: Differential Scanning Fluorimetry. Differential scanning fluorimetry experiments were performed as previously reported. (Donlic A, et al. (2020) Nucleic Acids Res. 48(14):7653-7664). All experiments were performed in white 96 well plates in a LightCycler® 96 (Roche). In a typical experiment, 4 μM of RNA was annealed in the same buffer used for indicator displacement assays (20 mM HEPES-KOH, 52.6 mM KCl, 0.1 mM MgCl2, pH=7.4) by heating at 95° C. for 3 minutes, snap-cooling on ice for 10 minutes, and leaving the solution at room temperature for 1 hr. Then, 42 μL of this solution was aliquoted to wells and 5 μM of ligand was added (2.5 μL of water, 2.0 μL of DMSO, 0.5 μL of 500 μM small molecule stock). The mixture was left to incubate at room temperature for 5 minutes, after which 3 μL of a 20 µM Quant-iT™ RiboGreen™ (ThermoFisher Scientific) dye stock solution in appropriate buffer was added to each well. The 96 well plate was then sealed with an optically clear foil and centrifuged for 1 minute at 4000 rpm prior to being placed in the instrument. The light cycler program was created by selecting the melting curve method; fluorescence intensity was monitored using the SYBR Green I/HRM dye filter combination (465-510 nm) from 37-98° C. at a ramp rate of 0.01° C./second with 150 acquisitions per ° C. Melting profiles were obtained by Tm analysis in the LightCycler® 96 software (SW 1.1).

[3] = test system: MALAT1 triple helix; experiment: RNase A enzymatic degradation assay; type: biochemical, human; conditions: for stabilizing or destabilizing compound as listed in the description: listing in an aspect, degradation in an enzymatic assay versus control
Protocol: RNase A Enzymatic Degradation Assay.
The procedure was adapted from a published protocol for exonucleolytic enzymatic degradation assay. (Donlic A, et al. (2020) Nucleic Acids Res. 48(14):7653-7664). The MALAT1 destabilizing small molecules published by Le Grice (Abulwerdi F A, et al. (2019) ACS Chem Biol. 14(2):223-235) and co-workers SM5 and SM16 were purchased from ChemBridge. For a typical 70 μL reaction, […] of MALAT1 triple helix RNA was annealed in the same buffer used for IDA and DSF experiments (20 mM HEPES-KOH, 52 mM KCl, 0.1 mM MgCl2, pH=7.4) by heating at 95° C. for 3 minutes, snap-cooling on ice for 10 minutes, and leaving the solution at room temperature for 1 hr.
RNase A enzyme (ThermoFisher) was diluted to 1.46 nM and incubated with 1 M NaCl for 30-35 minutes to achieve ssRNA selectivity as reported. (Struhl K, et al. (1989) Current Protocols in Molecular Biology. 8(1):3.13.1-3.13.3). Next, the RNA was mixed with […] of a CC-rich DNA duplex, 0.2 mM of small molecule/DMSO and incubated at room temperature for 20 minutes. Following the incubation, […] of RNase A was added, and the reaction was incubated at 37° C. for 1 hour in a thermal cycler with a heated lid (Eppendorf). 4 μL timepoint aliquots were taken at 0, 5, 10, 30, and 60 minutes, 4 μL of 2×RNA loading dye was added to each aliquot (ThermoFischer Scientific), and samples were stored at −80° C. prior to gel analysis. Reactions were analyzed on pre-cast 15% PAGE-Urea gels (Invitrogen) in 1×TBE buffer. Aliquots were thawed from −80° C. storage and heated to 95° C. for 15 minutes prior to gel loading and […] were loaded in each well. Gels were run for 45 minutes at 180 V, stained with Diamond™ Nucleic Acid dye (Promega), and visualized on an iBright 500 (ThermoFisher). DMSO controls were ran with every set of 4 small molecules to ensure consistency of enzyme activity and RNA integrity. Gel band intensity of the MALAT1 triple helix and DNA loading control were quantified using ImageJ software. (Rueden C T, et al. (2017) BMC Bioinformatics. 18(1):529).
To quantify time-dependent endonucleolytic degradation for each sample, the intensity was normalized using Equation (3), and fold-difference was calculated as listed in Equation (4) as previously reported. (Donlic A, et al. (2020) Nucleic Acids Res. 48(14):7653-7664).
where y is fold-difference of the exonucleolytic degradation for the specific sample, with normalized areas for its specific time point x and time point 0 calculated as described in Equation (3). Percent RNA degraded was calculated for every time point using Equation (5).
% RNA degraded=(Normalized area (t0)−Normalized area (tx))*100 (Equation 5)
Experimental results shown in FIG. 6C are plotted as three independent replicates and standard deviation between replicates as error bars. Relative fold change between treated condition and DMSO was calculated from Equation (6).

[4] = test system: LNCaP cells; experiment: MTT assay in LNCaP cells; type: cell-based, human; conditions: for IC50: Homo sapiens
Description: The MTT reagent (3-(4,5-dimethylthiazol-2-yl)-2,5-diphenyl-2H-tetrazolium bromide) is a mono-tetrazolium salt that consists of a positively charged quaternary tetrazole ring core containing four nitrogen atoms surrounded by three aromatic rings including two phenyl moieties and one thiazolyl ring. Reduction of MTT results in disruption of the core tetrazole ring and the formation of a violet-blue water-insoluble molecule called formazan. The MTT reagent can pass through the cell membrane as well as the mitochondrial inner membrane of viable cells presumably due to its positive charge as well as its lipophilic structure and is reduced to formazan by metabolically active cells. The chromogenic nature of this redox chemical reaction provides a colorimetric-based measurement of intracellular formazan production based on which the MTT assay was developed. Consequently, the assay has extensive utility as a cell metabolic activity assay.
In the first set of […] experiments, four (4) members of the small molecule library were examined in a MTT assay. […] The IC50 values and trends were similar to the apparent small molecule affinities for MALAT-1, supporting a MALAT-1 related mechanism for the toxicity. […] Ongoing cytotoxicity studies using other DMZ small molecule analogs (as well as DMZ-5, DMZ-P13, and DMZ-P17) continue to illuminate mechanism of action regarding toxicity to cancer cells.

[5] = 5-minute time point, relative to DMSO control
[6] = 48 hours, read-out: IC50 at 48 hours

In the case of `N=C(NCCc1cccnc1)c1cccc(/N=N/Nc2cccc(C(=N)NCCc3cccnc3)c2)c1` [DMZ-M3], the “affinity for the MALAT1 triple helix (IDA), in words” value (“affinity for the MALAT1 triple helix” below) [1] is reported as “moderate affinity” and the “effect on MALAT1 triplex thermal stability (DSF), in words” value (shortened to “effect … in words”) [2] is reported as “negligible thermal stabilization”.
For `N=C(NCc1ccccc1)c1cccc(/N=N/Nc2cccc(C(=N)NCc3ccccc3)c2)c1` [DMZ-M4], the “increase of the amount of MALAT1 degraded at 5 minutes” value ([3]; 5-minute time point) was 2 fold and > 2 fold, the “stabilizer or destabilizer of MALAT1 triplex (RNase A degradation)” value (“stabilizer or destabilizer” for short) [3, 5] was “destabilizers” and the “affinity for the MALAT1 triple helix” value [1] was “mediocre affinity”. For the same compound, the CD50 (50% competitive displacement dose) ([1]; 16-point titration, 20 mM HEPES-KOH, 52 mM KCl, 0.1 mM MgCl2, pH 7.4) was 36.6 µM and the “effect … in words” value [2] was “increases in thermal stability; also recorded: mediocre affinity and thermal stabilization”.
With `N=C(NCc1ccc(-c2ccccc2)cc1)c1cccc(/N=N/Nc2cccc(C(=N)NCc3ccc(-c4ccccc4)cc3)c2)c1` [DMZ-M7] the IC50 [4, 6] was 2.9 µM.
`CN1CCN(CCNC(=N)c2cccc(/N=N/Nc3cccc(C(=N)NCCN4CCN(C)CC4)c3)c2)CC1` [DMZ-M10] was tested, and the “IC50 relative to other tested library members, in words” value [4] was “higher IC50”.
`N=C(NCc1ccco1)c1cccc(/N=N/Nc2cccc(C(=N)NCc3ccco3)c2)c1` [DMZ-M15] was tested, and the “stabilizing or destabilizing compound as listed in the description” value (from here on “stabilizing or destabilizing compound”) [3] was “stabilizing; also recorded: destabilizing”, the “affinity for the MALAT1 triple helix” value [1] was “moderate affinity” and the “effect … in words” value [2] was “negligible thermal stabilization”.
With `CN(C)c1ccc(CN2CCC(CCNC(=N)c3ccc(/N=N/N(C)c4ccc(C(=N)NCCC5CCN(Cc6ccc(N(C)C)cc6)CC5)cc4)cc3)CC2)cc1` [DMZ-NMe-P38] the “stabilizing or destabilizing compound” value [3] was “destabilizing”.
With `CN(/N=N/c1ccc(C(=N)NCCC2CCN(Cc3ccccc3)CC2)nc1)c1ccc(C(=N)NCCC2CCN(CC3C=CC=CC3)CC2)nc1` (stereo not shown) [DMZ-NMe-mPy-P1] the “stabilizing or destabilizing compound” value [3] was “destabilizing”.
In the case of `N=C(NCc1ccccc1)c1ccccc1/N=N/Nc1ccccc1C(=N)NCc1ccccc1` [DMZ-O4], the “affinity for the MALAT1 triple helix” value [1] is reported as “no affinity”.
For `N=C(NCc1ccc(Cl)cc1)c1ccccc1/N=N/Nc1ccccc1C(=N)NCc1ccc(Cl)cc1` [DMZ-O5], the “stabilizer or destabilizer” value [3, 5] was “much stronger destabilizing effect than DMZ-P5”.
With `N=C(NCc1ccccc1Cl)c1ccccc1/N=N/Nc1ccccc1C(=N)NCc1ccccc1Cl` [DMZ-O6] the “stabilizing or destabilizing compound” value [3] was “destabilizing; also recorded: stabilizing”.
For `N=C(N)c1ccc(/N=N/Nc2ccc(C(=N)N)cc2)cc1` [DMZ-P0, diminazene, reference compound], the “stabilizer or destabilizer” value [3, 5] was “destabilizers”, the “IC50 relative to other tested library members, in words” value [4] was “much higher IC50” and the “effect … in words” value [2] was “increases in thermal stability”.
In the case of `CN(C)CCCNC(=N)c1ccc(/N=N/Nc2ccc(C(=N)NCCCN(C)C)cc2)cc1` [DMZ-P1], the “graded stabilizer/destabilizer class (change in degradation)” value [3, 5] is reported as “weak destabilizer (weak destabilizer (<50% increase in degradation))”, the “stabilizer or destabilizer” value [3, 5] is reported as “destabilizers” and the “effect … in words” value [2] is reported as “increases in thermal stability”. The “effect on Tm1 (ΔTm1)” value ([2]; equimolar ratio of RNA:small molecule, compared to DMSO vehicle) was “approximately 6.1 °C”.
For `N=C(NCc1ccc(Cl)cc1)c1ccc(/N=N/Nc2ccc(C(=N)NCc3ccc(Cl)cc3)cc2)cc1` [DMZ-P5], the “fold higher affinity with the para scaffold versus the ortho scaffold (DMZ-O5)” value ([1]; subunit R-5) was 13 fold.
Compound `N=C(NCCC1CCN(Cc2ccccc2)CC1)c1ccc(/N=N/Nc2ccc(C(=N)NCCC3CCN(Cc4ccccc4)CC3)cc2)cc1` [DMZ-P13] has an IC50 [4, 6] of 4.1 µM and an IC50 ([4]; 72 hours, read-out: IC50 at 72 hours) of 2.7 µM.
In the case of `CCN(CCCCNC(=N)c1ccc(N/N=N/c2ccc(C(=N)NCCCN(CC)Cc3ccccc3)cc2)cc1)Cc1ccccc1` [DMZ-P14], the “stabilizing or destabilizing compound” value [3] is reported as “stabilizing; also recorded: destabilizing”.
